Laboratory results taken from PMC6270864, “Identification of Two Novel α1-AR Agonists Using a High-Throughput Screening Model” (Molecules, 2014).

Legend:
[1] = target: T1, human α1A-adrenoceptor (ADRA1A) expressed in HEK293 cells (Homo sapiens, UniProt P35348); assay: Dual-luciferase CRE reporter HTS assay, inhibition of PE-induced CRE activation (RIP); format: cell-based; details: relative inhibitory potency = (RLU PE alone − RLU PE+antagonist)/RLU PE alone
T1 construct: eGFP; host or cells: HEK293 (transient, Lipofectamine 2000)
T1 sequence (P35348 1-466): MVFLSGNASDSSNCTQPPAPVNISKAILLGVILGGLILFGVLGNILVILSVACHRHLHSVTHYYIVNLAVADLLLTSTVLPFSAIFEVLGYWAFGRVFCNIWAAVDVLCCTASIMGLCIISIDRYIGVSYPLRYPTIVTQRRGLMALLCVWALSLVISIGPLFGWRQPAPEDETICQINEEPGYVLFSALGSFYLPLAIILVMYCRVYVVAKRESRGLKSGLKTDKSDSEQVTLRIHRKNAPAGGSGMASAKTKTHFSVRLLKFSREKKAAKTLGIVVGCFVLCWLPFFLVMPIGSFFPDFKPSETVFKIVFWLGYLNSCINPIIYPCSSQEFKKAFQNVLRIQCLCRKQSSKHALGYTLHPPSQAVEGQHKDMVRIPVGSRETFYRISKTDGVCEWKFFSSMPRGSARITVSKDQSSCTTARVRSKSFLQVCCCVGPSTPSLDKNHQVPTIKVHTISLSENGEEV
Experimental: (§1) Furthermore, the relative inhibitory potency (RIP) could be used to improve the readability of the results. Which was determined relative to that of PE-induced group ([…]), and calculated using the following formula [15]: RIP = (RLUPE alone − RLUPE+antagonist)/RLUPE alone(1)
(§2) HEK293 cells were plated at a density of 10^5 […] in 96-well plates in 100 μL of DMEM basic medium containing 10% fetal bovine serum, 100 U/mL penicillin, and 0.1 mg/mL streptomycin. After overnight incubation, human ADRA1-expression vectors, namely, ADRA1A, ADRA1B, and ADRA1D, were co-transfected with reporter vectors (CRE, SRE, AP1, NFAT, and NF-кB) and pGL4.74 [hRluc/TK] (included as a control for transfection efficiency) using Lipofectamine 2000 transfection reagent (Invitrogen Life Technologies, Carlsbad, CA, USA). The medium was removed after 4 h and replaced with high-glucose DMEM for 18 h. Cells were then treated with agonists (at concentrations of 0.01–20 μM) and incubated for 8 h.
(§3) Firefly and Renilla luciferase activities, which are indicated as RLUs, were determined using Dual-Glo luciferase assay kits (Promega) according to the manufacturer’s instructions. RLUs were measured using a luminometer (GloMaxTM 96-Microplate Luminometer, Promega) and are reported as the mean ± SEM of three individual experiments. For agonists, fold of induction = RLUinduced/RLUuninduced. For antagonists, % of control = 100 × RLU (agonist + antagonist)/RLU(agonist alone). All RLUs were normalized against firefly RLUs/Renilla RLUs. […] The pKB of the antagonist was calculated by plotting log (dose ratio–1) against the antagonist dose (μM) and subjecting the data to Schild regression, where the intercept of the x-axis represents the pKB.

[2] = target: T2, human α1B-adrenoceptor (ADRA1B) expressed in HEK293 cells (Homo sapiens, UniProt P35368); assay: as above; format: cell-based; details: relative inhibitory potency = (RLU PE alone − RLU PE+antagonist)/RLU PE alone
T2 construct: eGFP; host or cells: HEK293 (transient, Lipofectamine 2000)
T2 sequence (P35368 1-520): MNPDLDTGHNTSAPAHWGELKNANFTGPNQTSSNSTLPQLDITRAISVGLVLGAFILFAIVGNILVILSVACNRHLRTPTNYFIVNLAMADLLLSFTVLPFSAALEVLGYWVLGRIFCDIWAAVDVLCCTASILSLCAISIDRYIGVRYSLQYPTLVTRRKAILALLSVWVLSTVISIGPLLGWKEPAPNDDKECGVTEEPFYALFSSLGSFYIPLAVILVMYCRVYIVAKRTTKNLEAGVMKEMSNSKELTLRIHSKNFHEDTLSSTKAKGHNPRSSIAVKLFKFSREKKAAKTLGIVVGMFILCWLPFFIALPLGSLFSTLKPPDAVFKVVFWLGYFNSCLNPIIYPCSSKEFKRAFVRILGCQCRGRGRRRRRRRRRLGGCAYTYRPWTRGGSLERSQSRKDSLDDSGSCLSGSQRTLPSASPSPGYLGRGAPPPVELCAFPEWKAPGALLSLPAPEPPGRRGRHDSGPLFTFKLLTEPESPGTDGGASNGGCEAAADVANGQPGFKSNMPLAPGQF
Experimental: as §1, §2, §3

[3] = target: T3, human α1D-adrenoceptor (ADRA1D) expressed in HEK293 cells (Homo sapiens, UniProt P25100); assay: as above; format: cell-based; details: relative inhibitory potency = (RLU PE alone − RLU PE+antagonist)/RLU PE alone
T3 construct: eGFP; host or cells: HEK293 (transient, Lipofectamine 2000)
T3 sequence (P25100 1-572): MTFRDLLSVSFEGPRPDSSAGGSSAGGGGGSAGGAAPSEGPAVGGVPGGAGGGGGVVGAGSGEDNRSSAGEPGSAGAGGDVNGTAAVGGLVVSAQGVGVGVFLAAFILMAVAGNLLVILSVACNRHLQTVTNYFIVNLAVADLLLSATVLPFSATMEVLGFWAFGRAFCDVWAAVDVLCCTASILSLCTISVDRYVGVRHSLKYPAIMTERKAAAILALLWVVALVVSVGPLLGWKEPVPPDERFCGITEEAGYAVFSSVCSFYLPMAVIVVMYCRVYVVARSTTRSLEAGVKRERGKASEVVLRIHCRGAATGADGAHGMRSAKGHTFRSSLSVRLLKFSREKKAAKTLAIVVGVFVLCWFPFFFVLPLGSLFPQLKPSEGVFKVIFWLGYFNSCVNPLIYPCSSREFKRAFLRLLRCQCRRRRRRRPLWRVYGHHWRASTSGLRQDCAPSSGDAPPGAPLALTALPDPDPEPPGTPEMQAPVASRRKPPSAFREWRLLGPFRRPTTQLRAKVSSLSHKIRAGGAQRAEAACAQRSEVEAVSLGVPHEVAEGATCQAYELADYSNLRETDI
Experimental: as §1, §2, §3

[4] = test system: DU145 human prostate cancer cell line; assay: CCK-8 assay, cytotoxic / anti-proliferative activity; format: cell-based; details: DU-145, CCK-8, 24 h exposure, mean ± SD, three experiments
Experimental: (§4) Cell proliferation was measured with the Cell Counting Kit-8 (CCK-8) assay kit (Dojindo Corp., Kumamoto, Japan). Cells were harvested during logarithmic growth phase and seeded in 96-well plates at a density of 1 × 10^5 cells/mL, and cultured at 37 °C in a humidified incubator (5% CO2) for 24 h, followed by exposure to various concentrations of compounds tested for 24 h. Subsequently 10 μL of CCK-8 (Dojindo) was added to each well, the cells were then incubated for an additional 1 h at 37 °C to convert WST-8 into formazan. Cell growth inhibition was determined by measuring the absorbance (Abs) at λ = 450 nm using amicroplate reader. Three independent experiments were performed. Cell growth inhibition was calculated according to the following equation: Growth inhibition = (1 − OD of treated cells/OD of control cells) × 100% (2)
(§5) The half maximal inhibitory concentrations (IC50) were obtained from liner regression analysis of the concentration-response curves plotted for each tested compound.

[5] = test system: LNCaP human prostate cancer cell line; assay: as above; format: cell-based; details: CCK-8, 24 h exposure, mean ± SD, three experiments
Experimental: as §4, §5

[6] = test system: PC-3 human prostate cancer cell line; assay: as above; format: cell-based; details: CCK-8, 24 h exposure, mean ± SD, three experiments
Experimental: as §4, §5

[7] = test system: RWPE-1 human prostate epithelial cell line; assay: as above; format: cell-based; details: for IC50: Homo sapiens, RWPE-1, CCK-8, 24 h exposure, mean ± SD, three experiments; for cytotoxic effects on human epithelial prostate normal cells RWPE-1: CCK-8
Experimental: as §4, §5

[8] = target: T1, human α1A-adrenoceptor (ADRA1A) expressed in HEK293 cells; assay: Dual-luciferase CRE reporter HTS assay, agonist mode; format: cell-based; details: HEK293, 8 h, read-out: EC50 α1A (agonistic activity)
Experimental: as §2, §3

[9] = target: T2, human α1B-adrenoceptor (ADRA1B) expressed in HEK293 cells; assay: as above; format: cell-based; details: HEK293, 8 h, read-out: EC50 α1B (agonistic activity)
Experimental: as §2, §3

[10] = target: T3, human α1D-adrenoceptor (ADRA1D) expressed in HEK293 cells; assay: as above; format: cell-based; details: HEK293, 8 h, read-out: EC50 α1D (agonistic activity)
Experimental: as §2, §3

[11] = test system: α1-ARs (α1A, α1B, and α1D); assay: Dual-luciferase CRE reporter HTS assay, agonist mode, summary over subtypes; format: cell-based, human; details: for EC50: range over the three subtypes and both compounds, read-out: EC50, agonistic activities on α1-ARs (α1A, α1B, and α1D)
Experimental: as §2, §3

[12] = test system: human prostate cancer cell lines (PC-3, LNCaP and DU145); assay: CCK-8 assay, summary over tested cancer cell lines; format: cell-based; details: range over PC-3, LNCaP, DU145 and both compounds, read-out: IC50, cytotoxic activities against tested cancer cell lines
Experimental: as §4, §5

α1-ARs (α1A, α1B, α1D) = details: α1-AR subtype selectivity, cited from earlier work

For COc1ccccc1N1CCN(CC(O)COc2cccc3ccccc23)CC1 (stereo not drawn) [Naftopidil, naftopidil, reference compound], the “RIP Values (Mean ± S.E.M, n = 4) α1A” value [1] was 0.79 ± 0.09, the “RIP Values (Mean ± S.E.M, n = 4) α1B” value [2] was 0.77 ± 0.02 and the “RIP Values (Mean ± S.E.M, n = 4) α1D” value [3] was 0.93 ± 0.01. For the same compound, the IC50 [4] was 34.58 ± 0.31 µM, the IC50 [5] was 22.4 ± 0.61 µM and the IC50 [6] was 42.1 ± 0.79 µM. For the same compound, the IC50 [7] was 52 ± 1.51 µM.
Cc1ccc(S(=O)(=O)OCCc2ccc(COc3ccc4c(c3)OCO4)cc2)cc1 [CHK3] gave an EC50 [8] of 42.5 µM, an EC50 [9] of 35.2 µM and an EC50 [10] of 34.3 µM. It also gave an IC50 [4] of 39.1 ± 0.81 µM, an IC50 [5] of 51.5 ± 1.08 µM and an IC50 [6] of 55.3 ± 1.09 µM. The “cytotoxic effects on human epithelial prostate normal cells RWPE-1” value [7] was “exhibited cytotoxic effects”, the IC50 [7] was 31.7 ± 0.61 µM and the EC50 [11] was 25.3 to 47.2 µM. It also gave an IC50 [12] of 11.1 to 91.3 µM.
In the case of CNC[C@H](O)c1cccc(O)c1 [Phenylephrine, phenylephrine, reference compound], the EC50 [10] is reported as 2.68 µM.
In the case of COc1ccccc1N1CCN(CCCNc2c(C)c(=O)n(C)c(=O)n2C)CC1 [5-Methylurapidil, 5-methylurapidil], the “RIP Values (Mean ± S.E.M, n = 4) α1A” value [1] is reported as 0.83 ± 0.03, the “RIP Values (Mean ± S.E.M, n = 4) α1B” value [2] is reported as 0.63 ± 0.07 and the “RIP Values (Mean ± S.E.M, n = 4) α1D” value [3] is reported as 0.51 ± 0.09.
For COc1cc2nc(N3CCN(C(=O)OCc4ccccc4)[C@H](C(=O)NC(C)(C)C)C3)nc(N)c2cc1OC [Compound L-765314], the “RIP Values (Mean ± S.E.M, n = 4) α1A” value [1] was 0.53 ± 0.08, the “RIP Values (Mean ± S.E.M, n = 4) α1B” value [2] was 0.86 ± 0.01 and the “RIP Values (Mean ± S.E.M, n = 4) α1D” value [3] was 0.30 ± 0.11.
In the case of Cc1ccc(S(=O)(=O)OCCc2ccc(CN3C(=O)c4ccccc4C3=O)cc2)cc1 [CHE3], the EC50 [9] is reported as 42.7 µM, the EC50 [10] is reported as 47.2 µM and the IC50 [4] is reported as 11.1 ± 1.07 µM. The IC50 [5] was 47 ± 1.24 µM, the IC50 [6] was 91.3 ± 1.13 µM and the “cytotoxic effects on human epithelial prostate normal cells RWPE-1” value [7] was “exhibited cytotoxic effects”. For the same compound, the IC50 [7] was 30.7 ± 0.66 µM, the EC50 [11] was 25.3 to 47.2 µM and the “subtype selectivity in the HTS assay” value ([11]; α1A, α1B, α1D) was “did not display significant subtype selectivity”. It also gave an IC50 [12] of 11.1 to 91.3 µM.
For COc1cc2nc(N3CCN(C(=O)C4CCCO4)CC3)nc(N)c2cc1OC (stereo not drawn) [Terazosin, terazosin], the “RIP Values (Mean ± S.E.M, n = 4) α1A” value [1] was 0.89 ± 0.05, the “RIP Values (Mean ± S.E.M, n = 4) α1B” value [2] was 0.91 ± 0.02 and the “RIP Values (Mean ± S.E.M, n = 4) α1D” value [3] was 0.49 ± 0.02. For the same compound, the “Reported Selectivity” value (α1-ARs (α1A, α1B, α1D)) was “Nonselective [17]” and the “Reported Selectivity (Table S1)” value (α1-ARs (α1A, α1B, α1D); ref 2 (supplement)) was “Nonselective”.
